Experimental data reported in patent US20260123630A1, “COMPOSITIONS INCLUDING ENCAPSULATED BIXLOZONE AND NON ENCAPSULATED BIXLOZONE” (FMC CORPORATION, priority 2022, published 2026).

Tested on: corn
Assay: Crop injury studies in corn
Type: in vivo
Experimental: The maximum crop injury from encapsulated and non-encapsulated bixlozone compositions were assessed for corn. The compositions were applied at post-seeding pre-emergence and post-emergence.
The numbers in parentheses indicate the application rate of the applied compositions in g ai/ha.

CCCCCC(C)OC(=O)COc1ccc(Cl)c2cccnc12 (centres unmarked) [cloquintocet-mexyl]
Effect of mixture partner on crop injury (in words) (post-emergence BBCH 11-12, FIG. 5): no observed effect | Effect of mixture partner on crop injury (in words) (post-emergence BBCH 13-15, FIG. 6): no observed effect
